In ChEMBL document CHEMBL5113434, “Discovery of novel Thieno[2,3-d]imidazole derivatives as agonists of human STING for antitumor immunotherapy using systemic administration” (Eur J Med Chem, 2022):
One block for each molecule: values may come before it. The source made the active and inactive calls. The calls are words filed in the database; no cut-off is given here.

Legend:
[1] = Toxicity in BALB/c mouse xenografted with 4T1 cells assessed as body weight loss at 10 to 20 mg/kg, iv administered on day 1,4,7 and measured for 20 days; assay type: organism-based; settings: in vivo, 480 h, dose 10-20 mg/kg, time 20 day
[2] = target: T1, Stimulator of interferon genes protein (Homo sapiens, UniProt Q86WV6); assay: Agonist activity at STING in human THP1-Dual cells assessed as fold change in ISG activation at 10 uM incubated for 24 hrs by Quanti-luc reagent based assay relative to control; assay type: cell-based; settings: filed as agonist
Target sequence in this assay (Q86WV6 whole entry): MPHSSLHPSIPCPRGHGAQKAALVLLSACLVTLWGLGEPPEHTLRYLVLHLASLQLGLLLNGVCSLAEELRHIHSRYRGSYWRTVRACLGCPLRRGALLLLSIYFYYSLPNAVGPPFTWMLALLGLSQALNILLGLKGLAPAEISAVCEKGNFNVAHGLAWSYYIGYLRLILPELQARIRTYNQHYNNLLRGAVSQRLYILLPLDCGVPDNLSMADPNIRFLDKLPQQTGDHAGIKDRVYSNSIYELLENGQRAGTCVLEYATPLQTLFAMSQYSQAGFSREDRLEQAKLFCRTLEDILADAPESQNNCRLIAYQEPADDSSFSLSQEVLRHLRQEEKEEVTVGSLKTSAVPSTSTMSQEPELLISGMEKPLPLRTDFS

[3] = target: T2, Stimulator of interferon genes protein (Mus musculus) (UniProt Q3TBT3); assay: Agonist activity at STING in mouse RAW-Lucia ISG cells assessed as fold change in ISG activation at 50 uM incubated for 24 hrs by Quanti-luc reagent based assay relative to control; assay type: cell-based; settings: filed as agonist
T2 sequence (whole entry): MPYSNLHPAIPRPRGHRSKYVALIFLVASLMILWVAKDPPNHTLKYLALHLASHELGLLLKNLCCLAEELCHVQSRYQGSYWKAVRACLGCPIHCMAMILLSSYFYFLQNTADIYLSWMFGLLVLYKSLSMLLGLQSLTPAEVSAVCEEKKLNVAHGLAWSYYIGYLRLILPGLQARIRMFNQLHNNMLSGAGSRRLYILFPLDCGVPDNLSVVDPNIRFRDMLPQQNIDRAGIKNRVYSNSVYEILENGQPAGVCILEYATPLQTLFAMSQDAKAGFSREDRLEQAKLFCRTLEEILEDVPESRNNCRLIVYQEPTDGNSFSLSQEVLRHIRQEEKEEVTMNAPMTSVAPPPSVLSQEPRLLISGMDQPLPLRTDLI

[4] = target: T1, Stimulator of interferon genes protein; assay: Agonist activity at STING in human THP1-Dual cells assessed as ISG activation incubated for 24 hrs by Quanti-luc reagent based assay; assay type: cell-based
Target sequence in this assay (Q86WV6 whole entry): as the sequence (Q86WV6 whole entry) above

[5] = target: T3, Stimulator of interferon genes protein (Mus musculus, UniProt Q3TBT3); assay: Agonist activity at STING in mouse RAW-Lucia ISG cells assessed as ISG activation incubated for 24 hrs by Quanti-luc reagent based assay; assay type: cell-based
T3 sequence (Q3TBT3 whole entry): T2 sequence (whole entry)

[6] = test system: Stimulator of interferon genes protein (Homo sapiens), Q86WV6 [UNDEFINED MUTATION]; assay: Binding affinity to human STING R232 mutant assessed as thermal stability by measuring change in melting temperature by differential scanning fluorimetry; settings: filed as agonist
Chain of Stimulator of interferon genes protein (Homo sapiens), Q86WV6 [UNDEFINED MUTATION] (Q86WV6 whole entry, looked up, stated change not applied): as the sequence (Q86WV6 whole entry) above

[7] = test system: Stimulator of interferon genes protein (Homo sapiens), Q86WV6 [R293Q]; assay: Binding affinity to human STING 293Q mutant assessed as thermal stability by measuring change in melting temperature by differential scanning fluorimetry; settings: filed as agonist
Chain of Stimulator of interferon genes protein (Homo sapiens), Q86WV6 [R293Q] (Q86WV6 whole entry R293Q): as the sequence (Q86WV6 whole entry) above, with R293Q counted along it

[8] = test system: Stimulator of interferon genes protein (Homo sapiens), Q86WV6 [G230A,R293Q]; assay: Binding affinity to human STING AQ mutant assessed as thermal stability by measuring change in melting temperature by differential scanning fluorimetry; settings: filed as agonist
Chain of Stimulator of interferon genes protein (Homo sapiens), Q86WV6 [G230A,R293Q] (Q86WV6 whole entry G230A/R293Q): as the sequence (Q86WV6 whole entry) above, with G230A, R293Q counted along it

Homo sapiens = species: Homo sapiens; assay: Binding affinity to human STING H232 mutant assessed as thermal stability by measuring change in melting temperature by differential scanning fluorimetry; settings: filed as agonist
Mus musculus = species: Mus musculus; assay: Binding affinity to mouse STING R231 mutant assessed as thermal stability by measuring change in melting temperature by differential scanning fluorimetry; settings: filed as agonist
[9] = target: T1, Stimulator of interferon genes protein; assay: Binding affinity to His6-tagged human wild type STING R232 variant by homogeneous time-resolved fluorescence assay
Target sequence in this assay (Q86WV6 whole entry, looked up, change not shown): as the sequence (Q86WV6 whole entry) above

[10] = Half life in BALB/c mouse at 1 mg/kg, iv measured up to 24 hrs by UPLC-MS/MS analysis; assay type: ADME, organism-based; settings: in vivo
[11] = AUClast in BALB/c mouse at 1 mg/kg, iv measured up to 24 hrs by UPLC-MS/MS analysis; assay type: ADME, organism-based; set-up: time < 24 hrs, dose 1 mg/kg, route iv; settings: in vivo
[12] = Observed AUC infinity in BALB/c mouse at 1 mg/kg, iv measured up to 24 hrs by UPLC-MS/MS analysis; assay type: ADME, organism-based; set-up: dose 1 mg/kg, time < 24 hrs, route iv; settings: in vivo
[13] = Observed clearance in BALB/c mouse at 1 mg/kg, iv measured up to 24 hrs by UPLC-MS/MS analysis; assay type: ADME, organism-based; settings: in vivo
[14] = Observed volume of distribution at steady state in BALB/c mouse at 1 mg/kg, iv measured up to 24 hrs by UPLC-MS/MS analysis; assay type: ADME, organism-based; settings: in vivo, read-out: Vdss
[15] = target: T1, Stimulator of interferon genes protein; assay: Agonist activity at human STING in human THP1-Dual cells assessed as activation of ISG signaling pathway measured after 24 hrs by Quanti-luc reagent based assay; assay type: cell-based; settings: filed as agonist, dose 0.0001-1 µM, DDE = dose-dependent effect
Target sequence in this assay (Q86WV6 whole entry): as above

[16] = target: T1, Stimulator of interferon genes protein; assay: Agonist activity at human STING in human THP1-Dual cells assessed as activation of NF-kappB signaling pathway measured after 24 hrs by Quanti-luc reagent based assay; assay type: cell-based; settings: filed as agonist, dose 0.0001-1 µM, DDE = dose-dependent effect
Target sequence in this assay (Q86WV6 whole entry): as above

[17] = target: T1, Stimulator of interferon genes protein; assay: Activation of STING pathway in human THP1-Dual cells assessed as increase in TBK1 phosphorylation at 0.01 to 1 uM measured for 4 hrs immunoblotting analysis; assay type: cell-based; settings: filed as activator, dose 0.01-1 µM
Target sequence in this assay (Q86WV6 whole entry): as above

[18] = target: T1, Stimulator of interferon genes protein; assay: Activation of STING pathway in human THP1-Dual cells assessed as increase in IRF3 phosphorylation at 0.01 to 1 uM measured for 4 hrs by immunoblotting analysis; assay type: cell-based; settings: filed as activator, dose 0.01-1 µM
Target sequence in this assay (Q86WV6 whole entry): as above

[19] = target: T1, Stimulator of interferon genes protein; assay: Activation of STING pathway in human THP1-Dual cells assessed as increase in IFNbeta expression level at 0.01 to 1 uM measured for 24 hrs by chemiluminescence based analysis; assay type: cell-based; settings: filed as activator, dose 0.01-1 µM
[20] = target: T1, Stimulator of interferon genes protein; assay: Activation of STING pathway in human THP1-Dual cells assessed as increase in IP-10 expression level at 0.01 to 1 uM measured for 24 hrs by chemiluminescence based analysis; assay type: cell-based; settings: filed as activator, dose 0.01-1 µM
[21] = target: T1, Stimulator of interferon genes protein; assay: Activation of STING pathway in human 293T-Dual hSTING-H232 cells assessed as increase in IFNbeta expression level measured for 24 hrs by SEAP reporter based Quanti-luc assay; assay type: cell-based; settings: filed as activator, dose 0.01-1 µM, DDE = dose-dependent effect
[22] = target: T1, Stimulator of interferon genes protein; assay: Activation of STING pathway in human 293T-Dual hSTING-H232 cells assessed as increase in ISG expression level measured for 24 hrs by SEAP reporter based Quanti-luc assay; assay type: cell-based; settings: filed as activator, dose 0.01-1 µM, DDE = dose-dependent effect
[23] = target: T1, Stimulator of interferon genes protein; assay: Activation of STING pathway in human 293T-Dual hSTING-R232 cells assessed as increase in IFNbeta expression level measured for 24 hrs by SEAP reporter based Quanti-luc assay; assay type: cell-based; settings: filed as activator, dose 0.01-1 µM, DDE = dose-dependent effect
[24] = target: T1, Stimulator of interferon genes protein; assay: Activation of STING pathway in human 293T-Dual hSTING-R232 cells assessed as increase in ISG expression level measured for 24 hrs by SEAP reporter based Quanti-luc assay; assay type: cell-based; settings: filed as activator, dose 0.01-1 µM, DDE = dose-dependent effect
[25] = target: T2, Stimulator of interferon genes protein (Mus musculus); assay: Activation of STING pathway in mouse RAW-Lucia ISG cells assessed as increase in ISG expression level at 12.5 to 50 uM measured for 24 hrs by Quanti-luc reagent based assay; assay type: cell-based; settings: filed as activator, dose 12.5-50 µM
4T1 [26] = assay: Antitumour activity against mouse 4T1 cells implanted in BALB/c mouse assessed as tumor growth inhibition at 10 mg/kg, iv administered on day 1,4,7 and measured for 20 days relative to control; assay type: functional; settings: 4T1, 480 h, time 20 day, read-out: TGI
4T1 [27] = assay: Antitumour activity against mouse 4T1 cells implanted in BALB/c mouse assessed as tumor growth inhibition at 20 mg/kg, iv administered on day 1,4,7 and measured for 20 days relative to control; assay type: functional; settings: 4T1, 480 h, time 20 day, read-out: TGI
CT26 [28] = assay: Antitumour activity against mouse CT26 cells implanted in BALB/c mouse assessed as suppression of tumor growth at 10 mg/kg, iv administered on day 1,4,7 and measured for 20 days; assay type: functional, organism-based; settings: time 20.0 day
CT26 [29] = assay: Antitumour activity against mouse CT26 cells implanted in BALB/c mouse assessed as suppression of tumor growth at 5 mg/kg, IT administered on day 1,4,7 and measured for 20 days; assay type: functional, organism-based; settings: time 20.0 day
CT26 [30] = assay: Antitumor immunity against mouse CT26 cells implanted in BALB/c mouse assessed as increase in IP-10 level in plasma at 10 mg/kg, iv administered on day 1,4,7 for 20 days and measured 6 hrs post last dose; assay type: functional, organism-based; settings: time 20.0 day
CT26 [31] = assay: Antitumor immunity against mouse CT26 cells implanted in BALB/c mouse assessed as increase in IFN-beta level in plasma at 10 mg/kg, iv administered on day 1,4,7 for 20 days and measured 6 hrs post last dose; assay type: functional, organism-based; settings: time 20.0 day
CT26 [32] = assay: Antitumor immunity against mouse CT26 cells implanted in BALB/c mouse assessed as increase in IP-10 level in plasma at 5 mg/kg, IT administered on day 1,4,7 for 20 days and measured 6 hrs post last dose; assay type: functional, organism-based; settings: time 20.0 day
CT26 [33] = assay: Antitumor immunity against mouse CT26 cells implanted in BALB/c mouse assessed as increase in IFN-beta level in plasma at 5 mg/kg, IT administered on day 1,4,7 for 20 days and measured 6 hrs post last dose; assay type: functional, organism-based; settings: time 20.0 day
[34] = target: T1, Stimulator of interferon genes protein; assay: Agonist activity at wild type human STING in HEK cells; assay type: cell-based
[35] = target: T1, Stimulator of interferon genes protein; assay: Agonist activity at STING (unknown origin)
[36] = target: T1, Stimulator of interferon genes protein; assay: Inhibition of human wild type STING

Compound: CCn1nc(C)cc1C(=O)Nc1nc2cc(C(N)=O)sc2n1C/C=C/Cn1c(NC(=O)c2cc(C)nn2CC)nc2cc(C(N)=O)cc(OCCCN3CCOCC3)c21
- Activity [1]: Non-Toxic
- fold change (FC) [2]: 145
- fold change (FC) [3]: 20.7
- EC50 [4]: 1.2 nM
- EC50 [5]: 32800 nM
- ΔTm [6]: 6.6 °C
- ΔTm [7]: 11.1 °C
- ΔTm [8]: 12.4 °C
- ΔTm (Homo sapiens): 12.8 °C
- ΔTm (Mus musculus): 13.3 °C
- IC50 [9]: 0.6 nM
- half-life [10]: 1.62 h
- AUC(0-t) at 24 h [11]: 701 ng·h/mL
- AUC(0-inf) [12]: 711 ng·h/mL
- clearance [13]: 26.3 mL/min/kg
- Vd [14]: 1.52 L/kg
- Activity [15]: Dde
- Activity [16]: Dde
- Activity [17]: Active
- Activity [18]: Active
- Activity [19]: Active
- Activity [20]: Active
- Activity [21]: Dde
- Activity [22]: Dde
- Activity [23]: Dde
- Activity [24]: Dde
- Activity [25]: Active
- inhibition in vivo at 10 mg/kg (4T1 [26]): 61%
- inhibition in vivo at 20 mg/kg (4T1 [27]): 74%
- Activity (CT26 [28]): Active
- Activity (CT26 [29]): Active
- Activity (CT26 [30]): Active
- Activity (CT26 [31]): Active
- Activity (CT26 [32]): Active
- Activity (CT26 [33]): Active

Compound: CCn1nc(C)cc1C(=O)Nc1nc2cc(C(N)=O)cc(OC)c2n1C/C=C/Cn1c(NC(=O)c2cc(C)nn2CC)nc2cc(C(N)=O)cc(OCCCN3CCOCC3)c21
- half-life [10]: 1.14 h
- AUC(0-t) at 24 h [11]: 657 ng·h/mL
- AUC(0-inf) [12]: 666 ng·h/mL
- clearance [13]: 26 mL/min/kg
- Vd [14]: 0.965 L/kg

Compound: CCn1nc(C)cc1C(=O)Nc1nc2sc(C(N)=O)cc2n1CCCCn1c(NC(=O)c2cc(C)nn2CC)nc2cc(C(N)=O)cc(OCCCN3CCOCC3)c21
- fold change (FC) [2]: 1.15
- fold change (FC) [3]: 1

Compound: CCn1nc(C)cc1C(=O)/N=c1\[nH]c2cc(C(N)=O)ccc2n1C[C@@H](O)c1ccccc1
- IC50 [36]: 1400 nM

Other lines, results leading:

- fold change (FC) [2]: 60.4
- fold change (FC) [3]: 13.5
- EC50 [4]: 5820 nM
- EC50 [5]: 63700 nM
Compound: CCn1nc(C)cc1C(=O)Nc1nc2cc(C(N)=O)sc2n1C/C=C/Cn1c(NC(=O)c2cc(C)nn2CC)nc2cc(C(N)=O)cc(OC(C)C)c21

- EC50 [34]: 2490 nM
Compound: O=C(NCc1ccco1)c1ccc2c(c1)N(Cc1c(F)cccc1Cl)C(=O)CS2

- fold change (FC) [2]: 49.2
- fold change (FC) [3]: 10.2
- EC50 [4]: 1560 nM
- EC50 [5]: > 100000 nM
Compound: CCn1nc(C)cc1C(=O)Nc1nc2cc(C(N)=O)sc2n1C/C=C/Cn1c(NC(=O)c2cc(C)nn2CC)nc2cc(C(N)=O)cc(OC3COC3)c21

- fold change (FC) [2]: 11
- fold change (FC) [3]: 1.39
Compound: CCn1nc(C)cc1C(=O)Nc1nc2cc(NC(=O)CN)ccc2n1CCCCn1c(NC(=O)c2cc(C)nn2CC)nc2cc(C(N)=O)cc(OCCCN3CCOCC3)c21

- EC50 [35]: 180 nM
Compound: O=C(c1ccc([N+](=O)[O-])cc1)N1CCc2cc(S(=O)(=O)N3C[C@@H](c4ccccc4)NC3=O)ccc21
